Results on one compound are retold here after publication PMC12817916, “A small-molecule HSP90 inhibitor, NVP-HSP990, alleviates rotavirus infection” (Journal of Virology, 2025).

SMILES strings stand for the structures.

This data set deals with RV SA11 strain. The experiment in a line: RV SA11 diarrhea model in suckling mice. The format is in vivo, BALB/c suckling mice. The settings on record: for infectious RV particles and viral antigens in intestinal contents, transcription of RV VP6 in intestinal epithelial cells: compared to controls. On the procedure: BALB/c mice were purchased from Gempharmatech Inc. (Suzhou, China) and housed under SPF conditions (22 ± 1°C, 12 h light/dark cycle). Suckling mice were obtained by mating male and female adult BALB/c mice (12- to 16-week-old). Only the 7-day-old BALB/c suckling mice with body weights ranging from 2.5 g to 4.5 g were selected for RV diarrhea models. For induction of RV diarrhea, 1 × 10^6 PFU of SA11 strain or 10 × DD50 of EDIM strain in 20 µL PBS was orally inoculated using a pipette tip to 7-day-old BALB/c suckling mice regardless of their sexes, as sex has no significant influence on RV diarrhea occurrence. We used a scoring system to evaluate fecal consistency and color as described with some modification ([27]): no stool or brown formed stool (1 point); brown soft stool (2 points); yellow soft stool (3 points); and yellow watery stool (4 points). Mice with scores of ≥2 meant diarrhea occurrence, while mice with scores of 1 meant no diarrhea. At the end of each experiment, all infected or drug-treated suckling mice were humanely euthanized via CO2 asphyxiation.
Seven-day-old BALB/c suckling mice meeting the weight criteria within each litter were randomly assigned to experimental groups. Each litter was allocated to ensure one to three suckling mice per experimental group (variations dependent on the total number of groups). Data from suckling mice assigned to the same group across multiple litters were aggregated to achieve a total sample size of n = 3–6 per experimental group. Then, the suckling mice were orally inoculated with 1 × 10^6 PFU of the SA11 strain or 10 × DD50 of the EDIM strain, or with an equal amount of PBS as mock infection. For SA11 infection, the suckling mice were orally treated once with indicated doses of drugs or with an equal volume of DMSO as control at 2 h p.i. For EDIM infection, the suckling mice were orally treated with 0.2 mg/kg/day NVP-HSP990, 30 mg/kg/day ribavirin, or an equal amount of DMSO as control from 2 days post-infection (d p.i.) to indicated time points. Diarrhea scores and body weight were monitored from day 0 to day 7 post-infection in the SA11 infection model, and from day 0 to day 9 post-diarrhea occurrence (2–11 d p.i.) in the EDIM infection model. Blinding was applied throughout data collection and analysis.
The RV-infected suckling mice were sacrificed by CO2 asphyxiation at the indicated times, and small intestines (including duodenum, jejunum, and ileum) or colon was homogenized in 0.3 mL DMEM, centrifuged at 12,000 × g for 5 min at 4°C, and the supernatant was collected. Virus contents in the supernatant were titrated with PFA as described above. Viral antigens in the supernatant were detected with enzyme-linked immunosorbent assay (ELISA) kits for RV (CUSABIO, China) following the manufacturer’s instructions. For qPCR analysis of RV protein expression, the intestines were longitudinally split and washed in 1 mL DMEM by shaking for 30 s. Then, the tissues were cut into 0.5 cm segments, incubated in Hank’s buffer containing 2.5 mM EDTA-Na2 and 1 mM dithiothreitol (Sangon Biotech, China) at 37°C with rotation at 200 rpm for 30 min, filtered with a 70 µm strainer. Then the epithelial cells were pelleted by centrifugation at 500 × g for 5 min, purified with 20% Percoll (Cytiva, Sweden), and lysed in Trizol for RNA extraction and further qPCR analysis.
The jejunum and ileum of suckling mice were fixed in 4% paraformaldehyde for 24 h, washed with PBS twice, and then subjected to paraffin embedding and slicing at 5 µm thickness. The sections were stained with hematoxylin and eosin (Beyotime, China) and observed with an Olympus BX51 microscope, and the data were processed by CaseViewer 2.4 software. For immunohistochemistry analysis, the fixed tissues were dehydrated in 30% sucrose, embedded in Optimal Cutting Temperature compound, frozen with liquid nitrogen, and cryosliced at 10 µm thickness. […]

Where [1] appears, read: 1 mg/kg oral, once, 0 to 7 days post-infection.
Where [2] appears, read: oral, once at 2 h p.i., 24 h p.i., 1 × 10^6 PFU SA11.

In the case of `COc1cccc(-c2cc(F)ccc2[C@H]2Cc3nc(N)nc(C)c3C(=O)N2)n1` [NVP-HSP990], under setting [1], the “body growth of RV-infected suckling mice” value is “did not hinder” and the “diarrhea of RV-infected suckling mice” value is given as “significantly alleviated”. The “RV-induced foamy degeneration in the ileal epithelium” value (SA11-infected mice, 1 mg/kg oral, 16 h p.i., hematoxylin/eosin) is given as “markedly attenuated”. Further, where the note is “duodenum, 1 mg/kg oral, 16 h p.i.”, the “infectious RV particles and viral antigens in intestinal contents, transcription of RV VP6 in intestinal epithelial cells” value was “no significant differences”. Also, the “infectious RV particles and viral antigens in intestinal contents, transcription of RV VP6 in intestinal epithelial cells” value (jejunum and ileum, 1 mg/kg oral, 16 h p.i.) was “remarkably reduced”. Where the note is “mock-infected mice, NVP-HSP990 treatment alone, 1 mg/kg oral, hematoxylin/eosin”, the “pathological changes in the ileum” value was “no appreciable pathological changes”. Under setting [2], the “ED50 for RV diarrhea occurrence” value stood at 0.1423 mg/kg and the “ED50 for diarrhea score reduction” value turned out to be 0.1355 mg/kg.
